{
  "source": "PubChem BioAssay AID1259409",
  "about": "(Chemical Carcinogenesis Research Information System (CCRIS), 2018)",
  "origin": "cited, not measured here",
  "test_system": "rodent chemically induced tumor inhibition, incidence and multiplicity",
  "test": "CCRIS tumor inhibitor studies",
  "data": [
    {"smiles": "COc1ccc2c(c1)c(CC(=O)O)c(C)n2C(=O)c1ccc(Cl)cc1", "values": [
      {"measurement": "tumour outcome (control, treated, inhibition, significance)", "setting": "Carcinogen: METHYLAZOXYMETHANOL, 590-96-5, Dose [Inhibitor]: 7.5 MG/KG BW DAILY FOR 3 WK STARTING 27 WK AFTER THE START OF CARCINOGEN TREATMENT (STUDY DURATION: 30 WK), Route [Inhibitor]: INTRARECTAL, Species: RAT, Strain/Sex: DONRYU/MALE, Target Tissue: Type of Lesion: SMALL INTESTINE: ADENOCARCINOMA, Dose [Carcinogen]: 20 MG/KG BW 1/WK FOR 6 WK, Promoter: NONE USED", "value": "10/23 (43%), 4/30 (13%), 70%, p<0.05"},
      {"measurement": "tumour outcome (control, treated, inhibition, significance)", "setting": "Carcinogen: N,N-DIETHYLNITROSAMINE, 55-18-5, Dose [Inhibitor]: 0.016 MG/ML IN DRINKING WATER 3/WK FOR 4 MO STARTING 4 MO AFTER THE START OF CARCINOGEN TREATMENT AND CONTINUING FOR DUR, Route [Inhibitor]: ORAL, Species: MOUSE, Strain/Sex: C57BL/MALE, Target Tissue: Type of Lesion: ESOPHAGUS: TUMOR, Dose [Carcinogen]: 0.04 ML/1000 ML DRINKING WATER DAILY FOR 30 D THEN EVERY SECOND WK TO COMPLETE 5 MO PERIOD, Promoter: NONE USED", "value": "16/16 (100%), 19/19 (100%), 0%, not significant"},
      {"measurement": "tumour outcome (control, treated, inhibition, significance)", "setting": "Carcinogen: N,N-DIETHYLNITROSAMINE, 55-18-5, Dose [Inhibitor]: 0.016 MG/ML IN DRINKING WATER GIVEN TOGETHER WITH CARCINOGEN STARTING AT THE BEGINNING OF THE STUDY DAILY FOR 14 D AND 3, Route [Inhibitor]: ORAL, Species: MOUSE, Strain/Sex: C57BL/MALE, Target Tissue: Type of Lesion: ESOPHAGUS: TUMOR, Dose [Carcinogen]: 0.04 ML/1000 ML DRINKING WATER DAILY FOR 14 D THEN 3 D/WK FOR DURATION OF STUDY, Promoter: NONE USED", "value": "24/24 (100%), 45/45 (100%), 0%, not significant"},
      {"measurement": "tumour outcome (control, treated, inhibition, significance)", "setting": "Carcinogen: N,N-DIETHYLNITROSAMINE, 55-18-5, Dose [Inhibitor]: 0.016 MG/ML IN DRINKING WATER GIVEN TOGETHER WITH CARCINOGEN STARTING AT THE BEGINNING OF THE STUDY DAILY FOR 30 D THEN, Route [Inhibitor]: ORAL, Species: MOUSE, Strain/Sex: C57BL/MALE, Target Tissue: Type of Lesion: ESOPHAGUS: TUMOR, Dose [Carcinogen]: 0.04 ML/1000 ML DRINKING WATER GIVEN TOGETHER WITH AGENT, Promoter: NONE USED", "value": "8/8 (100%), 16/16 (100%), 0%, not significant"},
      {"measurement": "tumour outcome (control, treated, inhibition, significance)", "setting": "Carcinogen: N-BUTYL-N-(4-HYDROXYBUTYL)NITROSAMINE, 3817-11-6, Dose [Inhibitor]: 0, 7.5 MG/KG DIET BEGINNING 1 WK PRIOR TO CARCINOGEN TREATMENT AND CONTINUING FOR DURATION OF STUDY (STUDY DURATION: 187, Route [Inhibitor]: ORAL, Species: MOUSE, Strain/Sex: BDF/MALE, Target Tissue: Type of Lesion: URINARY BLADDER: TUMOR, Dose [Carcinogen]: 7.5 MG IN 0.1 ML OF ETHANOL:WATER (20:80) 1/WK FOR 8 WK, Promoter: NONE USED", "value": "24%, 5%, 79%, p<0.05"},
      {"measurement": "tumour outcome (control, treated, inhibition, significance)", "setting": "Carcinogen: N-BUTYL-N-(4-HYDROXYBUTYL)NITROSAMINE, 3817-11-6, Dose [Inhibitor]: 0, 15 MG/KG DIET BEGINNING 1 WK PRIOR TO CARCINOGEN TREATMENT AND CONTINUING FOR DURATION OF STUDY (STUDY DURATION: 187, Route [Inhibitor]: ORAL, Species: MOUSE, Strain/Sex: BDF/MALE, Target Tissue: Type of Lesion: URINARY BLADDER: TUMOR, Dose [Carcinogen]: 7.5 MG IN 0.1 ML OF ETHANOL:WATER (20:80) 1/WK FOR 8 WK, Promoter: NONE USED", "value": "24%, 0%, 100%, p<0.01"},
      {"measurement": "tumour outcome (control, treated, inhibition, significance)", "setting": "Carcinogen: N-BUTYL-N-(4-HYDROXYBUTYL)NITROSAMINE, 3817-11-6, Dose [Inhibitor]: 0, 20 PPM IN DRINKING WATER FOR 20 WK BEGINNING POST PROMOTER TREATMENT (STUDY DURATION: 44 WK), Route [Inhibitor]: ORAL, Species: RAT, Strain/Sex: F344/MALE, Target Tissue: Type of Lesion: URINARY BLADDER: PAPILLOMA, Dose [Carcinogen]: 0.05% IN DRINKING WATER FOR 4 WK, Promoter: BUTYLATED HYDROXYANISOLE, 25013-16-5", "value": "6/15 (40%), 9/15 (60%), -50%, not significant"},
      {"measurement": "tumour outcome (control, treated, inhibition, significance)", "setting": "Carcinogen: N-BUTYL-N-(4-HYDROXYBUTYL)NITROSAMINE, 3817-11-6, Dose [Inhibitor]: 0, 20 PPM IN DRINKING WATER FOR 20 WK BEGINNING POST PROMOTER TREATMENT (STUDY DURATION: 44 WK), Route [Inhibitor]: ORAL, Species: RAT, Strain/Sex: F344/MALE, Target Tissue: Type of Lesion: URINARY BLADDER: PAPILLOMA, Dose [Carcinogen]: 0.05% IN DRINKING WATER FOR 4 WK, Promoter: SODIUM L-ASCORBATE, 134-03-2", "value": "10/15 (67%), 10/15 (67%), 0%, not significant"},
      {"measurement": "tumour outcome (control, treated, inhibition, significance)", "setting": "Carcinogen: N-BUTYL-N-(4-HYDROXYBUTYL)NITROSAMINE, 3817-11-6, Dose [Inhibitor]: 0, 20 PPM IN DRINKING WATER FOR 20 WK BEGINNING POST PROMOTER TREATMENT (STUDY DURATION: 44 WK), Route [Inhibitor]: ORAL, Species: RAT, Strain/Sex: F344/MALE, Target Tissue: Type of Lesion: URINARY BLADDER: TRANSITIONAL CELL CARCINOMA, Dose [Carcinogen]: 0.05% IN DRINKING WATER FOR 4 WK, Promoter: BUTYLATED HYDROXYANISOLE, 25013-16-5", "value": "3/15 (20%), 3/15 (20%), 0%, not significant"},
      {"measurement": "tumour outcome (control, treated, inhibition, significance)", "setting": "Carcinogen: N-BUTYL-N-(4-HYDROXYBUTYL)NITROSAMINE, 3817-11-6, Dose [Inhibitor]: 0, 20 PPM IN DRINKING WATER FOR 20 WK BEGINNING POST PROMOTER TREATMENT (STUDY DURATION: 44 WK), Route [Inhibitor]: ORAL, Species: RAT, Strain/Sex: F344/MALE, Target Tissue: Type of Lesion: URINARY BLADDER: TRANSITIONAL CELL CARCINOMA, Dose [Carcinogen]: 0.05% IN DRINKING WATER FOR 4 WK, Promoter: SODIUM L-ASCORBATE, 134-03-2", "value": "6/15 (40%), 2/15 (13%), 67%, not significant"}
    ]}
  ]
}
